Read-outs that look alike come from different tables or passages of the source. Where a SMILES comes first, the peptide text is derived from it. Bridges are numbered along the chain shown (N, C = ends).
Assays:
[1] = molecular target: α4β2 nAChR (Rattus norvegicus, UniProt P09483+P12390); experiment: cell-based
[2] = molecular target: α9α10 nAChR (Rattus norvegicus, UniProt P43144+Q9JLB5); experiment: cell-based
[3] = molecular target: α2β2 nAChR (Rattus norvegicus, UniProt P12389+P12390); experiment: cell-based
Sequence of α2β2 nAChR (P12389 28-511 limits assumed): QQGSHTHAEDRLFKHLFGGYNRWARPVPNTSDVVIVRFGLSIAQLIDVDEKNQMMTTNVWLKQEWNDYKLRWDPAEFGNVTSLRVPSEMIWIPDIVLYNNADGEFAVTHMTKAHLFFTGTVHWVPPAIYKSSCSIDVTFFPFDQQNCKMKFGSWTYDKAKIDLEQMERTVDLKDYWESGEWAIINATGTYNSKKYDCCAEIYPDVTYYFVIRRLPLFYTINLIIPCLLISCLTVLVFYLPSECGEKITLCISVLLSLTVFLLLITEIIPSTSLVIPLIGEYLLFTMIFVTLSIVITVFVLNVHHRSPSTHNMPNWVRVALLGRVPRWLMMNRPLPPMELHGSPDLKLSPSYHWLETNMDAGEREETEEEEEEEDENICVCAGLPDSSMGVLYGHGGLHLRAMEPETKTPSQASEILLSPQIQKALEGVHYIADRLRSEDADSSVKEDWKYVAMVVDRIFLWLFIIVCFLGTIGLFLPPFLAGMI
Sequence of α2β2 nAChR (P12390 25-500 limits assumed): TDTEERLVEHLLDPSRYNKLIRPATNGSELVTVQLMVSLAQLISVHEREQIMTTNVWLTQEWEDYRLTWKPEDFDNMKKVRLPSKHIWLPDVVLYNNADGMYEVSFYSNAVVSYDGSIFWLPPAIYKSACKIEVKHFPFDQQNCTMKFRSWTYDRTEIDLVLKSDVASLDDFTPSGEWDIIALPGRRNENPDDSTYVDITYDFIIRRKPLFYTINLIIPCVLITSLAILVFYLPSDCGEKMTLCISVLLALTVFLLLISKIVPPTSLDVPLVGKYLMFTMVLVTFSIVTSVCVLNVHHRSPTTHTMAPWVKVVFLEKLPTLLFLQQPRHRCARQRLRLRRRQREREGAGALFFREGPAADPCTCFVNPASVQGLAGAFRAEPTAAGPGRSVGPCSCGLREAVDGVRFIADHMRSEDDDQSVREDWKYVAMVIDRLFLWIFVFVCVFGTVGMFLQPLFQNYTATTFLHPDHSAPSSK

[4] = molecular target: α6/α3β2β3 nAChR (Rattus norvegicus, UniProt P04757+P12390+P12391+P43143); experiment: cell-based
Sequence of α6/α3β2β3 nAChR (P04757 whole entry, looked up): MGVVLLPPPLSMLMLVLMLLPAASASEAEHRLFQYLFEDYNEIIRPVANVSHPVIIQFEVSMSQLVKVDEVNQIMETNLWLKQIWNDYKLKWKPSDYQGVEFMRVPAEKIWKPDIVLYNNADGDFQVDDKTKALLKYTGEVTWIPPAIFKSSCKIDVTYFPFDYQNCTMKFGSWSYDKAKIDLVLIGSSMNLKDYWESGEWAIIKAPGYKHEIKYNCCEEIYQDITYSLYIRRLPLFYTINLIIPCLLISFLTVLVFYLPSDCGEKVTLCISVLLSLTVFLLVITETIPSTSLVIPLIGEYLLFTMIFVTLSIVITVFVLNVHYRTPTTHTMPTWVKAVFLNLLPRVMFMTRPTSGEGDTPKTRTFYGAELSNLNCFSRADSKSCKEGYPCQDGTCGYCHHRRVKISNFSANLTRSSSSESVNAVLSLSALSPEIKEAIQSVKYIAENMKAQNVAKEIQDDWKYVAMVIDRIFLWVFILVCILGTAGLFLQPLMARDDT
Sequence of α6/α3β2β3 nAChR (P12390 whole entry, looked up): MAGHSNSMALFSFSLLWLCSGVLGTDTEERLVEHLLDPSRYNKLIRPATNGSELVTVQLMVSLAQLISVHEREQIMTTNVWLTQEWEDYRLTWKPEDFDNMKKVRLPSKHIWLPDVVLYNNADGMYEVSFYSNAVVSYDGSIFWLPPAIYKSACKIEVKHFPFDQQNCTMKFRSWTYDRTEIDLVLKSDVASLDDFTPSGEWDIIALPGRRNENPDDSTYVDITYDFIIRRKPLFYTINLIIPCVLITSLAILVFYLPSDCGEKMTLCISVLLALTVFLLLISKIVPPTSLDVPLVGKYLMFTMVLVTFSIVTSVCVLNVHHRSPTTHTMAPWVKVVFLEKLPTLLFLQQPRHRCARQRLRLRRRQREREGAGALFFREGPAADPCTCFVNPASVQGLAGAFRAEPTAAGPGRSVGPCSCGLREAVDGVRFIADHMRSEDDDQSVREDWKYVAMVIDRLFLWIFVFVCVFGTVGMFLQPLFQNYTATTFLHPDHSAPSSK
Sequence of α6/α3β2β3 nAChR (P12391 whole entry, looked up): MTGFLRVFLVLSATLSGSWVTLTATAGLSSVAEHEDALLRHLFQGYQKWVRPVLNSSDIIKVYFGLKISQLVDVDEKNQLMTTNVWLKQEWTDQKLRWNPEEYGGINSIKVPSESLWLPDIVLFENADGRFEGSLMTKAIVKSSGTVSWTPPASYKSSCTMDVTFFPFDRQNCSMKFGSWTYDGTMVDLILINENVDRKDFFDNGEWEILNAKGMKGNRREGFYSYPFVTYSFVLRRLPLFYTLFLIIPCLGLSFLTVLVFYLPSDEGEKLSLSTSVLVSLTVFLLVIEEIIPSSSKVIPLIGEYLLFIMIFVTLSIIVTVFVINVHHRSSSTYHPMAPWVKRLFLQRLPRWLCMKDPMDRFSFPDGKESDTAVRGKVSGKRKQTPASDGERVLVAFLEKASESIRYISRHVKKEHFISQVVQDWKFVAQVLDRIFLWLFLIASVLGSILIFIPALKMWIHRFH
Sequence of α6/α3β2β3 nAChR (P43143 whole entry, looked up): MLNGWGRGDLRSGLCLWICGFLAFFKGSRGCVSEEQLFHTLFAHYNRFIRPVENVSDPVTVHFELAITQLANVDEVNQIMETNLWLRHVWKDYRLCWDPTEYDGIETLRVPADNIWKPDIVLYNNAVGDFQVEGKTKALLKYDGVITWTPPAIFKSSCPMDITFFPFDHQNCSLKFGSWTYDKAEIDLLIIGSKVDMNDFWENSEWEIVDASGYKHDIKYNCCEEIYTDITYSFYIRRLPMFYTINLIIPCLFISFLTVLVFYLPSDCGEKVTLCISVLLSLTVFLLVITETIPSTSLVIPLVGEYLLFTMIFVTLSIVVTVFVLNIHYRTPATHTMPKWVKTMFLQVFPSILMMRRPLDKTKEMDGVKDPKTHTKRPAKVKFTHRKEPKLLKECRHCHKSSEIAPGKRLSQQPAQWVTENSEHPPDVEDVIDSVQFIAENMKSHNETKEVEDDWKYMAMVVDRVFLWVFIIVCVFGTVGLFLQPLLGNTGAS

[5] = molecular target: α3β4 nAChR (Rattus norvegicus, UniProt P04757+P12392); experiment: cell-based
[6] = molecular target: α3β2 nAChR (Rattus norvegicus, UniProt P04757+P12390); experiment: cell-based; assay type: cell-based
Sequence of α3β2 nAChR (P04757 26-499 limits assumed): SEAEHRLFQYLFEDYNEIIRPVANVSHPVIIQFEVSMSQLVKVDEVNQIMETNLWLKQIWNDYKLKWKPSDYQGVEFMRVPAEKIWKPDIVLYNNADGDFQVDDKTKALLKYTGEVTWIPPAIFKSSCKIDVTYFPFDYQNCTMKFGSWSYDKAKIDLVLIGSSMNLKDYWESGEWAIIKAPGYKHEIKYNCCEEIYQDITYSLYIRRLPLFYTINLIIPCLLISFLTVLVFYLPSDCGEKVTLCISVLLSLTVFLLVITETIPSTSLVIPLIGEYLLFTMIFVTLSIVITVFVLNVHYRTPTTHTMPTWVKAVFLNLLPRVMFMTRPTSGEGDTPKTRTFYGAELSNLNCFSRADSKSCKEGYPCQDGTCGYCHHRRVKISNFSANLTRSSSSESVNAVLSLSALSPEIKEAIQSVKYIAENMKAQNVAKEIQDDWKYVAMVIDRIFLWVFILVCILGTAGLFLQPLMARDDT
Sequence of α3β2 nAChR (P12390 25-500 limits assumed): as the sequence (P12390 25-500 limits assumed) above

[7] = tested on: other nAChR subtypes; assay type: cell-based, rat
[8] = molecular target: α7 nAChR (Rattus norvegicus, UniProt Q05941); experiment: cell-based

Sequence of α9α10 nAChR (P43144 26-479 limits assumed): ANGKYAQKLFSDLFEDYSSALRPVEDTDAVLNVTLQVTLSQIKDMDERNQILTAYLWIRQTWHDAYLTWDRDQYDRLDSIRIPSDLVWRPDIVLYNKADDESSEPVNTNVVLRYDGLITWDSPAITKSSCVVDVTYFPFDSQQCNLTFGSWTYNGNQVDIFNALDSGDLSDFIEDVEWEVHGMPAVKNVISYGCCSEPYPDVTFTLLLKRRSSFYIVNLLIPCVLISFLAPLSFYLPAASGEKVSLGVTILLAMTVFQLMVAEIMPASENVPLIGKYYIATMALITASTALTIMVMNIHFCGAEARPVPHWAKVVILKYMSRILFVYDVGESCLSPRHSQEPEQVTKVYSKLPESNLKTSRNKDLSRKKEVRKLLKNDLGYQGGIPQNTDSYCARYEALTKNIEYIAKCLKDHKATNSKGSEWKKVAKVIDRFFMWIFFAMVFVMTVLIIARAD
Sequence of α9α10 nAChR (Q9JLB5 25-447 limits assumed): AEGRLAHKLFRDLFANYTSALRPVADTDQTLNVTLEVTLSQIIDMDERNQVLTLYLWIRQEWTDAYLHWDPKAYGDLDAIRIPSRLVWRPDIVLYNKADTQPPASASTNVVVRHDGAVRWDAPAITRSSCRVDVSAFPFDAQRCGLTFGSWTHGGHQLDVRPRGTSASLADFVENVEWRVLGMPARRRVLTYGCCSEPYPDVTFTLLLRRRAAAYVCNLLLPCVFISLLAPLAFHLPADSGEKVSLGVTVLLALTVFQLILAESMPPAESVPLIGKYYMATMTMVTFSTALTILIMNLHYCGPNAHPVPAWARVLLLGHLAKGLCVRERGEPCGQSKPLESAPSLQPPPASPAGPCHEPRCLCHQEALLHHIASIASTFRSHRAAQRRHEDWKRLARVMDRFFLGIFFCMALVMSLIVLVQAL
Sequence of α4β2 nAChR (P09483 31-630 limits assumed): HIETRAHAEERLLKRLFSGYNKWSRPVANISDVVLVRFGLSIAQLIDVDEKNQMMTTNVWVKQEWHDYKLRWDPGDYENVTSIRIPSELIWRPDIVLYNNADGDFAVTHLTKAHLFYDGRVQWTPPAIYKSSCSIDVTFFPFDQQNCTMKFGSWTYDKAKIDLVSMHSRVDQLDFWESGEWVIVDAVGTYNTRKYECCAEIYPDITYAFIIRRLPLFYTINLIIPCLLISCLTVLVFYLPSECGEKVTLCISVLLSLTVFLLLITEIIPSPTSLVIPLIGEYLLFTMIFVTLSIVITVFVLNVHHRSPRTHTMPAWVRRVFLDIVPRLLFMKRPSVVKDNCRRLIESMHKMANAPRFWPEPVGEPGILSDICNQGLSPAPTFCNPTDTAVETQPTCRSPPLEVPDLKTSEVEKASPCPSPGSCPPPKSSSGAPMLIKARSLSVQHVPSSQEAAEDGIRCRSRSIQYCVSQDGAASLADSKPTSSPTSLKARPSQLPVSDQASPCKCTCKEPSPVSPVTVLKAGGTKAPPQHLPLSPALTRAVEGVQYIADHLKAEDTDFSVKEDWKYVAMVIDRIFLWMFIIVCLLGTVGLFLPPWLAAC
Sequence of α4β2 nAChR (P12390 25-500 limits assumed): as the sequence (P12390 25-500 limits assumed) above

| Structure (SMILES) | Hill Slope [1] | Hill Slope [2] | IC50 [2] | Hill Slope [3] | Hill Slope [4] | Hill Slope [5] | Hill Slope [6] | fold less potency than at muscle-type α1β1γδ [6] | IC50 ([7]; read-out: IC50) | Hill Slope [8] | IC50 [1] | IC50 [3] | IC50 [4] | IC50 [5] | IC50 [6] | fold lower potency than at α6/α3β2β3 [6] | inhibition [7] | IC50 ([7]; read-out: potency) | IC50 [8] |
| --- | --- | --- | --- | --- | --- | --- | --- | --- | --- | --- | --- | --- | --- | --- | --- | --- | --- | --- | --- |
| C[C@@H]1NC(=O)[C@@H]2CCCN2C(=O)[C@H](Cc2c[nH]cn2)NC(=O)[C@@H]2CSSC[C@@H](C(N)=O)NC(=O)[C@H](CC(N)=O)NC(=O)[C@H](Cc3ccc(O)cc3)NC(=O)[C@H](CCCCN)NC(=O)[C@H](CCCNC(=N)N)NC(=O)CNC(=O)[C@H](CSSC[C@H](NC(=O)[C@H](CCCNC(=N)N)NC(=O)CN)C(=O)N2)NC1=O [GaIA] (H-GRCCHPACGRKYNC-NH2; disulfide 3-8, 4-14) | −1.28 | −0.93 | 777 nM | −1.09 | −0.87 | −1.37 | −1.25 | about 25 fold | > 1000 nM | −1.45 | – | – | – | – | – | – | – | – | – |
| CC(C)C[C@@H]1NC(=O)[C@H](C(C)C)NC(=O)[C@H](C)NC(=O)[C@@H]2CSSC[C@H](NC(=O)CN)C(=O)N[C@@H](CSSC[C@@H](C(N)=O)NC(=O)[C@H](Cc3c[nH]cn3)NC1=O)C(=O)N[C@@H](CO)C(=O)N[C@@H]([C@@H](C)O)C(=O)N1CCC[C@H]1C(=O)N1CCC[C@H]1C(=O)N2 [AdIA] (H-GCCSTPPCAVLHC-NH2; disulfide 2-8, 3-13) | – | – | > 10 nM | – | −1.14 | – | −1.24 | – | – | – | > 10 nM | > 10 nM | 177 nM | > 10 nM | 1380 nM | at least 8 fold | ≤ 50% | > 10000 nM | > 10 nM |
